“Also recorded” adds a separate entry of the source.
How the values were obtained:
[1] = test system: OATP1B1/1B3; assay: Simcyp PBPK modeling of OATP1Bs-mediated drug-drug interaction; design: species or system human; settings: Simcyp input parameter
Protocol: PBPK modeling was conducted using the Simcyp™ in silico bottom-up PBPK modeling.
Simcyp™ software Version 17.0.0 was used. Simcyp™ parameters are shown below in Table 3.

[2] = biological target: T1, OATP1B1 (Homo sapiens, UniProt Q9Y6L6); assay: Uptake in HEK293 cells overexpressing OATP1B1; format: in vitro ADME
T1 construct: expressed in transfected cells; host or cells: HEK293-FT
T1 sequence (Q9Y6L6 1-691): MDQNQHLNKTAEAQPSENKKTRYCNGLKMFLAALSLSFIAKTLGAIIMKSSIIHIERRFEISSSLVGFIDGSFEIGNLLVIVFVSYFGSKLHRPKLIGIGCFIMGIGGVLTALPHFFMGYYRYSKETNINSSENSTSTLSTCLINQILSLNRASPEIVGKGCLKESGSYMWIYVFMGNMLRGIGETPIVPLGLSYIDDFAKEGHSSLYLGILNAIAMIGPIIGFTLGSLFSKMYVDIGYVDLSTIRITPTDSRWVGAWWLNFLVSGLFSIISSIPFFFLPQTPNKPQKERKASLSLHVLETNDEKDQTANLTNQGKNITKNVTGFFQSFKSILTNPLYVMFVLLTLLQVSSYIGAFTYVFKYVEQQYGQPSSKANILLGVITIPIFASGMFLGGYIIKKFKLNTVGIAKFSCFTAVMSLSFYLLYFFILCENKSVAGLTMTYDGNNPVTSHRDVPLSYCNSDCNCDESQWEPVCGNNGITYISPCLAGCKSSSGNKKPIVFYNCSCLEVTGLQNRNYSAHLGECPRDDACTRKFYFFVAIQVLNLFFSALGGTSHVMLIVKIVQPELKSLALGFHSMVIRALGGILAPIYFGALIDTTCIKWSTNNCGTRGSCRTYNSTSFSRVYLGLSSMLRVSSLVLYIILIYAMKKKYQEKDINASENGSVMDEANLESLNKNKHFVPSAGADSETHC
Protocol: TransportoCells™ (Corning, N.Y., USA) expressing OATP2B1, NTCP, and HEK293-FT cells stably transfected with the vector containing OATP1B1 cDNA or OATP1B3 cDNA or empty vector were grown in a Dulbecoo's modified Eagle's medium fortified with 10% fetal calf serum and 2 mmol/L sodium butyrate (for NTCP only) in a humidified incubator at 37° C. and 5% CO2. Cells were harvested at 90% confluence and then seeded in poly-D-lysine-coated 24-well 24 h prior to transporter assay. Cells were washed twice and pre-incubated with 200 μL of pre-warmed Krebs-Henseleit buffer. After pre-incubation, cells were incubated with 3 or 10 μmol L-1 of Compound 1 in presence or absence of 100 μmol L-1 of inhibitors (Rifamycin SV for OATP2B1, Troglitazone for NTCP, Rifamycin for OATP1B1 and OATP1B3). The transport reaction was terminated by aspirating the buffer from the wells at designated time. After washing three times with 200 μL of ice-cold Krebs-Henseleit buffer, the cells were lysed and the resulting cellular lysates were analyzed by LC-MS/MS.
Concentration-dependent uptake of Compound 1 via OATP1B1 and OATP1B3 were conducted with a concentration range of 0.25-100 μmol L-1 under linear uptake. All experiments were run in triplicates.

[3] = test system: OATP1B1/1B3; assay: Pharmacokinetics in humanized OATP1B1/1B3 mice with or without rifampin co-dose; format: in vivo; settings: 0.5 mg/kg IV, rifampin 30 mg/kg
Protocol: Age-matched Oatp1a/1b cluster-knockout, OATP1B1- or OATP1B3-knockin mice humanized on the Oatp1a/1b-knockout background, and wild-type FVB male mice were purchased from Taconic Biosciences (Hudson, N.Y., USA). Mice were between 8 and 10 weeks of age (22-34 g) at the time of study. Compound 1 was administered at a dose of 0.5 mg/kg coadministered with either vehicle or rifampin (30 mg/kg). Blood and liver samples were collected at 0.083, 0.25, 0.5, 1, 1.5, 3, 6 hours. Plasma was isolated from blood samples by centrifugation. All samples were stored at −80° C. until bioanalysis.
Compound 1 was dosed via intravenous administration to WT, humanized, and KO mice. Blood, urine, and feces were collected from the animals over 6 hours. Blood spots were collected and expelled FTA™ DMPK-B DBS Card (GE Healthcare, Life Sciences, Whatman™) within the appropriate sample circle. Pharmacokinetics of Compound 1 in WT animals was also assessed after co-administration with rifampin. Liver samples were also collected from WT animals and frozen until analysis. All samples were analyzed using LC-MS/MS and the pharmacokinetics parameters of Compound 1 were determined with Phoenix WinNonlin using non-compartmental analysis.
FIG. 2A through 2C show an in vivo PK profile and elimination of Compound 1 with and without a co-dose of the Oatp/OATP inhibitor Rifampin in different mouse models.

[4] = biological target: T2, MRP2 (Homo sapiens, UniProt Q92887); assay: Transport in MRP2 expressing membrane vesicles; format: in vitro ADME
T2 construct: purchased Corning
T2 sequence (Q92887 whole entry): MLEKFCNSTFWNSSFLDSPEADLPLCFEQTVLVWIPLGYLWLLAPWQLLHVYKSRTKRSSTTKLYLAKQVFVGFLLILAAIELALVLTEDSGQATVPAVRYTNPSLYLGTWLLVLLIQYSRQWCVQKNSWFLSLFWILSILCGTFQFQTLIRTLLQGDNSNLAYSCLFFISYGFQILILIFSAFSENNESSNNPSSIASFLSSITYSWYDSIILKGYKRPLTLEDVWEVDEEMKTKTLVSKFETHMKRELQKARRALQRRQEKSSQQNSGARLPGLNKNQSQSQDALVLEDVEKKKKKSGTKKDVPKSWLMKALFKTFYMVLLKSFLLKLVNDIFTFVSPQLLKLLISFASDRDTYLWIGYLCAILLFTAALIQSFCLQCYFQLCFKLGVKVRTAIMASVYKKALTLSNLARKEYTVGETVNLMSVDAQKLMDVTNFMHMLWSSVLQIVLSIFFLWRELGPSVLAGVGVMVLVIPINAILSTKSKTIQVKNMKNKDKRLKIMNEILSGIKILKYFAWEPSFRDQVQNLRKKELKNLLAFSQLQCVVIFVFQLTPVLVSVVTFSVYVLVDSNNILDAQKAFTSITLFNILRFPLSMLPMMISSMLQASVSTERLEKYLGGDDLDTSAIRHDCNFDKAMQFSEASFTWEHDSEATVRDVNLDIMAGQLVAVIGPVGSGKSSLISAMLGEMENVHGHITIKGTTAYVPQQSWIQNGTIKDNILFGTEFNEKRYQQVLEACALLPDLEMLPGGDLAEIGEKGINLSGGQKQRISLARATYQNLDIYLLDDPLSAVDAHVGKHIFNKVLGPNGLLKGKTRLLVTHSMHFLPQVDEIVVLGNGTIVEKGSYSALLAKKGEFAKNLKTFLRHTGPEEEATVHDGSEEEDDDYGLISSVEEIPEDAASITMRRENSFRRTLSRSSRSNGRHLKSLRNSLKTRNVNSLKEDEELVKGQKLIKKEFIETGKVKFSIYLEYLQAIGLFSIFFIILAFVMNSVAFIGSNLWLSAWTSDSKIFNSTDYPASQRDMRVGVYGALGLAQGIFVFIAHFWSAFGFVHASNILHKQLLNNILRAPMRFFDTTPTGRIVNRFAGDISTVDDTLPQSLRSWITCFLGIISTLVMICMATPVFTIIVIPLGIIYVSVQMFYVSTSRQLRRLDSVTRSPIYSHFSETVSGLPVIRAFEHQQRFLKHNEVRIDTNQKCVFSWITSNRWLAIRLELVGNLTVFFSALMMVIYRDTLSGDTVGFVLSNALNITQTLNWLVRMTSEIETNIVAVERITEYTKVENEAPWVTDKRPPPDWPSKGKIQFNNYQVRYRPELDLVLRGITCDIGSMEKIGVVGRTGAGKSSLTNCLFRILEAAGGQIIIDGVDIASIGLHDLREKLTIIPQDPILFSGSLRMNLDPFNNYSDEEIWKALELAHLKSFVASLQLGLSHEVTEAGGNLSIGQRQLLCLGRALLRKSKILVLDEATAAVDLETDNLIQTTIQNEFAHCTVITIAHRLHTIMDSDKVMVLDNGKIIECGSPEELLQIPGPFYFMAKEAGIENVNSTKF
Protocol: To study the interaction of Compound 1 with hepatic efflux (ABC) transporters, TransportoCells™ membrane vesicles expressing BCRP, BSEP, MRP2, and control vector vesicles were pre-incubation with vesicle uptake buffer (47 mmol L-1 MOPs-Tris, 65 mmol L-1 KCl, 7 mmol L-1 MgCl2, pH 7.4 for BCRP; 47 mmol L-1 MOPs-Tris, 2.5 mmol L-1 GSH, 65 mmol L-1 KCl, 7 mmol L-1 MgCl2, pH 7.4 for MRP2; and 10 mmol L-1 HEPES-Tris, 100 mmol L-1 KNO3, 12.5 mmol L-1 Mg(NO3)2, and 50 mmol L-1 sucrose, pH 7.4 for BSEP) at 37° C. for 10 minutes. The transport was initiated by adding of pre-warmed 25 mmol/L MgATP, 3 μmol L-1 of Compound 1 in presence or absence of inhibitors (3 μmol L-1 of Novobioncin for BCRP, 100 μmol L-1 of MK-571 for MRP2, and 20 μmol L-1 of Ketoconazole for BSEP). The transport was terminated at designated time by adding 200 μL ice-cold vesicle uptake buffer. The complete content was then rapidly filtrated using multi-screen HTS vacuum manifold, followed by 5 washes and filtrations. The plate was allowed to dry completely and then placed onto a 96-well receiver plate. A 50 μL of elute solution (75% methanol containing the internal standard) was added into each assay well followed by centrifugation at 2000 rpm for 5 minutes. […] The yield samples from two centrifugation were combined and analyzed by LC-MS/MS. […]

Structure (SMILES): O=[P@]1(S)OC[C@H]2O[C@@H]3[C@H](F)[C@@H]2O[P@](=O)(S)OC[C@H]2O[C@H]([C@H](F)[C@@H]2O1)n1cnc2c(ncnc21)NC/C=C/CNc1ncnc2c1ncn23 [Compound 1]
- CL R [1]: 2.000 L/h
- substrate of OATP1B1 ([2]; HEK293 cells overexpressing human OATP1B1): responsible for hepatic uptake; also recorded: substrate
- Jmax (pmol/min/million cells), OATP1B1 ([2]; Simcyp input parameter, Table 3): 8.34 pmol/min/million cells
- increase in plasma concentration/exposure in the presence of rifampin [3]: 4.5 fold
- substrate of biliary efflux transporter MRP2 [4]: sequential biliary efflux; also recorded: substrate
